Experimental data from the NIST ThermoML archive (doi:10.1016/j.jct.2017.10.004).

Test: xn = mol fraction of the nth substance listed
Conditions: 100 kPa, Liquid; for electrical conductivity: Alternating current cell with electrodes; for viscosity: Capillary tube (Ostwald / Ubbelohde) method; for mass density: Vibrating tube method

Cn1cc[n+](C)c1.O=S(=O)([N-]S(=O)(=O)C(F)(F)F)C(F)(F)F [1,3-dimethylimidazolium bis((trifluoromethyl)sulfonyl)amide] + O=C1CCCO1
Conditions	electrical conductivity [S/m]	mass density [kg/m3]	viscosity [mPa·s]
298.15 K, x1 = 0.05124	1.13	1190.03	2.27
298.15 K, x1 = 0.09948	1.58	1240.94	2.86
298.15 K, x1 = 0.1551	1.75	1289.73	3.61
298.15 K, x1 = 0.2007	1.77	1323.77	4.44
298.15 K, x1 = 0.2991	1.73	1383.3	6.56
298.15 K, x1 = 0.4002	1.6	1430.37	9.39
298.15 K, x1 = 0.4998	1.47	1467.09	12.79
298.15 K, x1 = 0.6127	1.29	1500.46	17.69
298.15 K, x1 = 0.7009	1.17	1522	22.05
298.15 K, x1 = 0.8002	1.05	1542.63	27.52
298.15 K, x1 = 0.8997	0.905	1560.16	33.41
298.15 K, x1 = 1	0.774	1575.42	39.43
303.15 K, x1 = 0.05124	1.22	1185.01	2.08
303.15 K, x1 = 0.09948	1.72	1235.89	2.61
303.15 K, x1 = 0.1551	1.9	1284.67	3.24
303.15 K, x1 = 0.2007	1.94	1318.66	4
303.15 K, x1 = 0.2991	1.9	1378.16	5.81
303.15 K, x1 = 0.4002	1.76	1425.2	8.35
303.15 K, x1 = 0.4998	1.63	1461.93	11.04
303.15 K, x1 = 0.6127	1.45	1495.28	15.09
303.15 K, x1 = 0.7009	1.32	1516.83	18.61
303.15 K, x1 = 0.8002	1.19	1537.44	22.9
303.15 K, x1 = 0.8997	1.04	1554.97	27.66
303.15 K, x1 = 1	0.915	1570.25	32.51
308.15 K, x1 = 0.05124	1.32	1180.03	1.85
308.15 K, x1 = 0.09948	1.85	1230.85	2.39
308.15 K, x1 = 0.1551	2.06	1279.57	3.02
308.15 K, x1 = 0.2007	2.09	1313.53	3.62
308.15 K, x1 = 0.2991	2.07	1372.98	5.23
308.15 K, x1 = 0.4002	1.93	1419.99	7.3
308.15 K, x1 = 0.4998	1.79	1456.71	9.7
308.15 K, x1 = 0.6127	1.61	1490.05	12.98
308.15 K, x1 = 0.7009	1.47	1511.6	16
308.15 K, x1 = 0.8002	1.34	1532.21	19.53
308.15 K, x1 = 0.8997	1.18	1549.75	23.46
308.15 K, x1 = 1	1.06	1565.01	27.47
313.15 K, x1 = 0.05124	1.4	1175.06	1.71
313.15 K, x1 = 0.09948	1.98	1225.8	2.2
313.15 K, x1 = 0.1551	2.19	1274.45	2.77
313.15 K, x1 = 0.2007	2.25	1308.37	3.3
313.15 K, x1 = 0.2991	2.23	1367.77	4.7
313.15 K, x1 = 0.4002	2.09	1414.76	6.5
313.15 K, x1 = 0.4998	1.95	1451.46	8.6
313.15 K, x1 = 0.6127	1.76	1484.8	11.46
313.15 K, x1 = 0.7009	1.61	1506.34	13.89
313.15 K, x1 = 0.8002	1.48	1526.95	16.86
313.15 K, x1 = 0.8997	1.32	1544.49	20.08
313.15 K, x1 = 1	1.2	1559.73	23.43
318.15 K, x1 = 0.05124	1.5	1170.08	1.62
318.15 K, x1 = 0.09948	2.12	1220.75	2.04
318.15 K, x1 = 0.1551	2.35	1269.35	2.57
318.15 K, x1 = 0.2007	2.42	1303.25	3.03
318.15 K, x1 = 0.2991	2.4	1362.59	4.27
318.15 K, x1 = 0.4002	2.25	1409.55	5.81
318.15 K, x1 = 0.4998	2.12	1446.23	7.64
318.15 K, x1 = 0.6127	1.92	1479.57	10.05
318.15 K, x1 = 0.7009	1.77	1501.11	12.18
318.15 K, x1 = 0.8002	1.65	1521.73	14.75
318.15 K, x1 = 0.8997	1.49	1539.27	17.45
318.15 K, x1 = 1	1.35	1554.49	20.25
323.15 K, x1 = 0.05124	1.59	1165.1	1.52
323.15 K, x1 = 0.09948	2.25	1215.71	1.89
323.15 K, x1 = 0.1551	2.51	1264.27	2.39
323.15 K, x1 = 0.2007	2.59	1298.14	2.79
323.15 K, x1 = 0.2991	2.59	1357.45	3.89
323.15 K, x1 = 0.4002	2.45	1404.4	5.3
323.15 K, x1 = 0.4998	2.31	1441.07	6.82
323.15 K, x1 = 0.6127	2.11	1474.41	8.92
323.15 K, x1 = 0.7009	1.96	1495.96	10.71
323.15 K, x1 = 0.8002	1.82	1516.59	12.9
323.15 K, x1 = 0.8997	1.67	1534.13	15.17
323.15 K, x1 = 1	1.51	1549.34	17.72
